According to patent publication US20110195949A1, “2-BENZOTHIOPHENYL- AND 2-NAPHTHYL-OXAZOLIDINONES AND THEIR AZAISOSTERE ANALOGUES AS ANTIBACTERIAL AGENTS” (ACTELION PHARMACEUTICALS LTD., priority 2008, published 2011):
Values after ≈ are worked out from the molar mass of the structure shown.

System: M. catarrhalis A894
Test: Minimal inhibitory concentration (MIC), microdilution method in cation-adjusted Mueller-Hinton Broth (CLSI M7-A7)
Format: cell-based
Conditions: Moraxella catarrhalis, strain A894
Protocol: Minimal inhibitory concentrations (MICs; mg/L) were determined in cation-adjusted Mueller-Hinton Broth by a microdilution method following the description given in “Methods for Dilution Antimicrobial Susceptibility Tests for Bacteria that Grow Aerobically”, Approved standard, 7th ed., Clinical and Laboratory Standards Institute (CLSI) Document M7-A7, Wayne, Pa., USA, 2006. All Example compounds were tested against several Gram positive and Gram negative bacteria such as S. aureus, E. faecalis, S. pneumoniae, M. catarrhalis, A. baumanii, E. coli or P. aeruginosa.

Row | Structure (SMILES) | MIC [µg/mL]
1 | O=C1CSc2ccc(N3CC(CCCNCc4cc5nccnc5s4)OC3=O)cc2N1 (racemic) [Example 10, rac-6-(2-oxo-5-{3-[(thieno[2,3-b]pyrazin-6-ylmethyl)-amino]-propyl}-oxazolidin-3-yl)-4H-benzo[1,4]thiazin-3-one] | 0.25 (≈ 0.549 µM)
2 | O=C1CSc2ccc(N3CC(CCCNCc4cc5cccnc5s4)OC3=O)cc2N1 (racemic) [Example 9, rac-6-(2-oxo-5-{3-[(thieno[2,3-b]pyridin-2-ylmethyl)-amino]-propyl}-oxazolidin-3-yl)-4H-benzo[1,4]thiazin-3-one] | 0.125 (≈ 0.275 µM)
3 | O=C1CSc2ccc(N3CC(CCCNCc4ccc5ccccc5c4)OC3=O)cc2N1 (racemic) [Example 12, rac-6-(5-{3-[(naphthalen-2-ylmethyl)-amino]-propyl}-2-oxo-oxazolidin-3-yl)-4H-benzo[1,4]thiazin-3-one] | 1 (≈ 2.23 µM)
4 | Cc1c(CNCCCC2CN(c3ccc4c(c3)NC(=O)CS4)C(=O)O2)sc2ccccc12 (racemic) [Example 8, rac-6-(5-{3-[(3-methyl-benzo[b]thiophen-2-ylmethyl)-amino]-propyl}-2-oxo-oxazolidin-3-yl)-4H-benzo[1,4]thiazin-3-one] | 0.063 (≈ 0.135 µM)
5 | O=C1CSc2ccc(N3CC(CCCNCc4ccc5ncccc5c4)OC3=O)cc2N1 (racemic) [Example 14, rac-6-(2-oxo-5-{3-[(quinolin-6-ylmethyl)-amino]-propyl}-oxazolidin-3-yl)-4H-benzo[1,4]thiazin-3-one] | 1 (≈ 2.23 µM)
6 | O=C1COc2ccc(N3C[C@@H](CCCNCc4ccc5ccccc5n4)OC3=O)cc2N1 [Example 4, 6-((R)-2-oxo-5-{3-[(quinolin-2-ylmethyl)-amino]-propyl}-oxazolidin-3-yl)-4H-benzo[1,4]oxazin-3-one] | 0.063 (≈ 0.146 µM)
7 | O=C1COc2ccc(N3C[C@@H](CCNCCNc4ccc5ccccc5n4)OC3=O)cc2N1 [Example 26, 6-((R)-2-oxo-5-{2-[2-(quinolin-2-ylamino)-ethylamino]-ethyl}-oxazolidin-3-yl)-4H-benzo[1,4]oxazin-3-one] | 0.25 (≈ 0.559 µM)
8 | O=C1CSc2ccc(N3CC(CCCNCc4ccc5c(F)cccc5n4)OC3=O)cc2N1 (racemic) [Example 7, rac-6-(5-{3-[(5-fluoro-quinolin-2-ylmethyl)-amino]-propyl}-2-oxo-oxazolidin-3-yl)-4H-benzo[1,4]thiazin-3-one] | 0.063 (≈ 0.135 µM)
9 | COc1ccc2ncc(OCC3CN(C[C@@H]4CN(c5ccc6c(c5)OCCO6)C(=O)O4)C3)nc2c1 [Example 19, (R)-3-(2,3-dihydro-benzo[1,4]dioxin-6-yl)-5-[3-(7-methoxy-quinoxalin-2-yloxymethyl)-azetidin-1-ylmethyl]-oxazolidin-2-one] | 0.25 (≈ 0.522 µM)
10 | COc1ccc2ccc(OCC3CCN(C[C@@H]4CN(c5ccc6c(c5)NC(=O)CS6)C(=O)O4)CC3)nc2c1 [Example 18, 6-{(R)-5-[4-(7-methoxy-quinolin-2-yloxymethyl)-piperidin-1-ylmethyl]-2-oxo-oxazolidin-3-yl}-4H-benzo[1,4]thiazin-3-one] | 0.5 (≈ 0.935 µM)
11 | O=C1CSc2ccc(N3CC(CCCNCc4cnc5ccccc5c4)OC3=O)cc2N1 (racemic) [Example 11, rac-6-(2-oxo-5-{3-[(quinolin-3-ylmethyl)-amino]-propyl}-oxazolidin-3-yl)-4H-benzo[1,4]thiazin-3-one] | 4 (≈ 8.92 µM)
12 | O=C1CSc2ccc(N3CC(CCCNCc4ccc5cccnc5c4)OC3=O)cc2N1 (racemic) [Example 13, rac-6-(2-oxo-5-{3-[(quinolin-7-ylmethyl)-amino]-propyl}-oxazolidin-3-yl)-4H-benzo[1,4]thiazin-3-one] | 0.5 (≈ 1.11 µM)
13 | O=C1CSc2ccc(N3CC(CCCNCc4ccc5ccccc5n4)OC3=O)cc2N1 (racemic) [Example 1, rac-6-(2-oxo-5-{3-[(quinolin-2-ylmethyl)-amino]-propyl}-oxazolidin-3-yl)-4H-benzo[1,4]thiazin-3-one] | 0.5 (≈ 1.11 µM)
14 | O=C1CSc2ccc(N3C[C@@H](CNCCNCc4ccc5ccccc5n4)OC3=O)cc2N1 [Example 27, 6-[(R)-2-oxo-5-({2-[(quinolin-2-ylmethyl)-amino]-ethylamino}-methyl)-oxazolidin-3-yl]-4H-benzo[1,4]thiazin-3-one] | 1 (≈ 2.16 µM)
15 | O=C1CSc2ccc(N3C[C@@H](CCCNCCc4ccc5ccccc5n4)OC3=O)cc2N1 [Example 25, 6-{(R)-2-oxo-5-[3-(2-quinolin-2-yl-ethylamino)-propyl]-oxazolidin-3-yl}-4H-benzo[1,4]thiazin-3-one] | 0.125 (≈ 0.27 µM)

Results, then the molecule that gave them:

Row | MIC [µg/mL] | Structure (SMILES)
16 | ≤ 0.031 | COc1ccc2ncc(OCC3CN(C[C@@H]4CN(c5ccc6c(c5)NC(=O)CO6)C(=O)O4)C3)nc2c1 [Example 22, 6-{(R)-5-[3-(7-methoxy-quinoxalin-2-yloxymethyl)-azetidin-1-ylmethyl]-2-oxo-oxazolidin-3-yl}-4H-benzo[1,4]oxazin-3-one]
17 | ≤ 0.031 | O=C1COc2ccc(N3C[C@@H](CCCNCc4ccc5ccc(F)cc5n4)OC3=O)cc2N1 [Example 3, 6-((R)-5-{3-[(7-fluoro-quinolin-2-ylmethyl)-amino]-propyl}-2-oxo-oxazolidin-3-yl)-4H-benzo[1,4]oxazin-3-one]
18 | 0.063 (≈ 0.129 µM) | O=C1CSc2ccc(N3C[C@@H](CN4CCN(Cc5ccc6ccccc6n5)CC4)OC3=O)cc2N1 [Example 28, 6-[(R)-2-oxo-5-(4-quinolin-2-ylmethyl-piperazin-1-ylmethyl)-oxazolidin-3-yl]-4H-benzo[1,4]thiazin-3-one]
19 | ≤ 0.031 | COc1cnc2cc(CNCCC[C@H]3CN(c4ccc5c(c4)NC(=O)CS5)C(=O)O3)c(F)cc2n1 [Example 29, 6-((S)-5-{3-[(7-fluoro-2-methoxy-quinoxalin-6-ylmethyl)-amino]-propyl}-2-oxo-oxazolidin-3-yl)-4H-benzo[1,4]thiazin-3-one]
20 | ≤ 0.031 | COc1ccc2ncc(OCC3CN(CC[C@@H]4CN(c5ccc6c(c5)NC(=O)CS6)C(=O)O4)C3)nc2c1 [Example 20, 6-((R)-5-{2-[3-(7-methoxy-quinoxalin-2-yloxymethyl)-azetidin-1-yl]-ethyl}-2-oxo-oxazolidin-3-yl)-4H-benzo[1,4]thiazin-3-one]
21 | ≤ 0.031 | O=C1CSc2ccc(N3C[C@H](CNCCCc4ccc5ccccc5n4)OC3=O)cc2N1 [Example 5, 6-{(S)-2-oxo-5-[(3-quinolin-2-yl-propylamino)-methyl]-oxazolidin-3-yl}-4H-benzo[1,4]thiazin-3-one]
22 | ≤ 0.031 | COc1ccc2ncc(OCC3CN(C[C@@H]4CN(c5ccc6c(c5)NC(=O)CS6)C(=O)O4)C3)nc2c1 [Example 21, 6-{(R)-5-[3-(7-methoxy-quinoxalin-2-yloxymethyl)-azetidin-1-ylmethyl]-2-oxo-oxazolidin-3-yl}-4H-benzo[1,4]thiazin-3-one]
23 | ≤ 0.031 | O=C1CSc2ccc(N3CC(CCCNCc4cc5ncccc5cc4F)OC3=O)cc2N1 (racemic) [Example 6, rac-6-(5-{3-[(6-fluoro-quinolin-7-ylmethyl)-amino]-propyl}-2-oxo-oxazolidin-3-yl)-4H-benzo[1,4]thiazin-3-one]
24 | ≤ 0.031 | COc1ccc2ccc(OC[C@@H]3CCN(C[C@@H]4CN(c5ccc6c(c5)NC(=O)CS6)C(=O)O4)C3)nc2c1 [Example 17, 6-{(R)-5-[(R)-3-(7-methoxy-quinolin-2-yloxymethyl)-pyrrolidin-1-ylmethyl]-2-oxo-oxazolidin-3-yl}-4H-benzo[1,4]thiazin-3-one]
25 | 0.031 (≈ 0.0664 µM) | O=C1CSc2ccc(N3CC(CCCNCc4ccc5ccc(F)cc5n4)OC3=O)cc2N1 (racemic) [Example 2, rac-6-(5-{3-[(7-fluoro-quinolin-2-ylmethyl)-amino]-propyl}-2-oxo-oxazolidin-3-yl)-4H-benzo[1,4]thiazin-3-one]
26 | ≤ 0.031 | O=C1CSc2ccc(N3C[C@@H](CCNCc4ccc5ccccc5n4)OC3=O)cc2N1 [Example 15, 6-((R)-2-oxo-5-{2-[(quinolin-2-ylmethyl)-amino]-ethyl}-oxazolidin-3-yl)-4H-benzo[1,4]thiazin-3-one]
27 | ≤ 0.031 | COc1ccc2ccc(OC3CC(NC[C@@H]4CN(c5ccc6c(c5)NC(=O)CS6)C(=O)O4)C3)nc2c1 (stereo partly drawn) [Example 23, 6-((R)-5-{[3-(7-methoxy-quinolin-2-yloxy)-cyclobutylamino]-methyl}-2-oxo-oxazolidin-3-yl)-4H-benzo[1,4]thiazin-3-one]
28 | ≤ 0.031 | O=C1CSc2ccc(N3C[C@@H](CCNCCc4ccc5ccccc5n4)OC3=O)cc2N1 [Example 16, 6-{(R)-2-oxo-5-[2-(2-quinolin-2-yl-ethylamino)-ethyl]-oxazolidin-3-yl}-4H-benzo[1,4]thiazin-3-one]
29 | 0.031 (≈ 0.0713 µM) | O=C1CSc2ccc(N3C[C@@H](CNCCc4ccc5ccccc5n4)OC3=O)cc2N1 [Example 24, 6-{(R)-2-oxo-5-[(2-quinolin-2-yl-ethylamino)-methyl]-oxazolidin-3-yl}-4H-benzo[1,4]thiazin-3-one]
